{"source": "paper PMC3034772", "about": "(Pharmaceutical research, 2010)", "key": {"[1]": {"assay": "Charge class Q, dominant calculated charge state at pH 7.4", "type": "physicochemical"}, "[2]": {"assay": "In combo PAMPA-BBB model, calculated log Po in situ"}, "[3]": {"settings": "PAMPA"}, "physchem [4]": {"assay": "physchem", "settings": "pKa"}, "[5]": {"settings": "cited from earlier work"}, "[6]": {"assay": "In situ brain perfusion permeability", "settings": "from literature PS"}, "[7]": {"settings": "PAMPA; for Pm^7.4: pH 7.4"}, "[8]": {"settings": "in vivo"}, "[9]": {"settings": "in vivo; cited from earlier work"}, "[10]": {"settings": "cited from earlier work", "remark": "listed apart in the source"}, "[11]": {"assay": "In situ brain perfusion, individual literature values", "settings": "from literature PS"}, "[12]": {"settings": "mouse, in vivo"}, "physchem [13]": {"assay": "physchem"}, "[14]": {"settings": "cited from earlier work", "remark": "listed apart in the source"}, "Double-Sink PAMPA": {"assay": "Double-Sink PAMPA", "settings": "intrinsic permeability, Type DS, Double-Sink PAMPA data scaled to the 3 μL level"}, "[15]": {"settings": "dominant calculated concentration fraction of the drug in a charge state"}}, "note": "“And” between values parts separate entries of the source, which are not always exact repeats. Equal values may be shown once. Read-outs that look alike come from different tables or passages of the source.", "data": [{"smiles": "CN/C(=N/CCSCc1nc[nH]c1C)NC#N", "note": "[Cimetidine]", "values": [{"measurement": "Q (charge class)", "setting": "[1]; [15]", "result": 0}, {"measurement": "obs–calc (log Po^in situ)", "setting": "[2]; efflux inhibition bcrp(−/−)", "result": "−0.4"}, {"measurement": "obs–calc (log Po^in situ)", "setting": "[2]; efflux inhibition mdr1a(−/−)", "result": 0.0}, {"measurement": "obs–calc (log Po^in situ)", "setting": "[2]; no efflux inhibition", "result": "−0.4 and −0.2"}, {"measurement": "log PABL", "setting": "[3]", "result": "−4.62"}, {"measurement": "log Po", "setting": "[3]", "result": "−6.40"}, {"measurement": "Pm^7.4", "setting": "[3]; pH 7.4", "result": 0.4}, {"measurement": "pKa", "setting": "physchem [4]", "result": 6.13}, {"measurement": "PS", "setting": "[5]; efflux inhibition bcrp(−/−)", "result": "1 10^−4 mLg^−1s^−1"}, {"measurement": "log PS", "setting": "[5]; efflux inhibition bcrp(−/−)", "result": "−4.08"}, {"measurement": "log Po^in situ (obs)", "setting": "[6]; efflux inhibition bcrp(−/−)", "result": "−5.95"}]}, {"smiles": "COc1ccc2c3c1O[C@H]1[C@@H](O)C=C[C@H]4[C@@H](C2)N(C)CC[C@@]341", "note": "[Codeine]", "values": [{"measurement": "Q (charge class)", "setting": "[1]", "result": "+"}, {"measurement": "obs–calc (log Po^in situ)", "setting": "[2]", "result": "−0.2"}, {"measurement": "log PABL", "setting": "[7]", "result": "−4.69"}, {"measurement": "log Po", "setting": "[7]", "result": "−3.68"}, {"measurement": "log Ppara", "setting": "[7]", "result": "−7.16"}, {"measurement": "Pm^7.4", "setting": "[7]", "result": 27}, {"measurement": "log Po^in situ (obs)", "setting": "[8]", "result": "−3.80"}, {"measurement": "log BB (brain-to-plasma total concentration ratio)", "setting": "[9]", "result": 0.55}, {"measurement": "PS", "setting": "[10]; in vivo", "result": "33 10^−4 mLg^−1s^−1"}, {"measurement": "log PS", "setting": "[10]; in vivo", "result": "−2.48"}]}, {"smiles": "COc1cccc2c1C(=O)c1c(O)c3c(c(O)c1C2=O)C[C@@](O)(C(=O)CO)C[C@@H]3O[C@H]1C[C@H](N)[C@H](O)[C@H](C)O1", "note": "[Doxorubicin]", "values": [{"measurement": "Q (charge class)", "setting": "[1]; [15]", "result": "+"}, {"measurement": "obs–calc (log Po^in situ)", "setting": "[2]; efflux inhibition mdr1a(−/−)", "result": 1.7}, {"measurement": "obs–calc (log Po^in situ)", "setting": "[2]; efflux inhibition mrp1(−/−)", "result": 1.4}, {"measurement": "obs–calc (log Po^in situ)", "setting": "[2]; efflux inhibition verapamil", "result": 1.6}, {"measurement": "log PABL", "setting": "[7]", "result": "−4.61"}, {"measurement": "log Po", "setting": "[7]", "result": "−4.23"}, {"measurement": "log Ppara", "setting": "[7]", "result": "−12"}, {"measurement": "Pm^7.4", "setting": "[7]", "result": 0.3}, {"measurement": "PS", "setting": "[5]; efflux inhibition mrp1(−/−)", "result": "2 10^−4 mLg^−1s^−1"}, {"measurement": "log PS", "setting": "[5]; efflux inhibition mrp1(−/−)", "result": "−3.66"}, {"measurement": "PS", "setting": "[10]; efflux inhibition verapamil", "result": "4 10^−4 mLg^−1s^−1"}, {"measurement": "log PS", "setting": "[10]; efflux inhibition verapamil", "result": "−3.44"}, {"measurement": "log Po^in situ (obs)", "setting": "[6]; efflux inhibition mrp1(−/−)", "result": "−3.35"}, {"measurement": "log Po^in situ (obs)", "setting": "[11]; efflux inhibition verapamil", "result": "−3.14"}]}, {"smiles": "COc1ccc2c3c1O[C@H]1C[C@@H](O)C=C[C@@]31CCN(C)C2", "note": "[Galanthamine]", "values": [{"measurement": "Q (charge class)", "setting": "[1]", "result": "+"}, {"measurement": "obs–calc (log Po^in situ)", "setting": "[2]", "result": 0.2}, {"measurement": "log PABL", "setting": "[7]", "result": "−4.89"}, {"measurement": "log Po", "setting": "[7]", "result": "−3.41"}, {"measurement": "log Ppara", "setting": "[7]", "result": "−7.73"}, {"measurement": "Pm^7.4", "setting": "[7]", "result": 22}, {"measurement": "log Po^in situ (obs)", "setting": "[12]", "result": "−3.21"}, {"measurement": "pKa", "setting": "physchem [13]", "result": 8.62}, {"measurement": "log Po^in situ (obs)", "setting": "[8]", "result": "−3.24"}, {"measurement": "log BB (brain-to-plasma total concentration ratio)", "setting": "[9]", "result": 0.00}, {"measurement": "PS", "setting": "[5]; mouse, in vivo", "result": "35 10^−4 mLg^−1s^−1"}, {"measurement": "log PS", "setting": "[5]; mouse, in vivo", "result": "−2.46"}, {"measurement": "PS", "setting": "[10]; in vivo", "result": "33 10^−4 mLg^−1s^−1"}, {"measurement": "log PS", "setting": "[10]; in vivo", "result": "−2.48"}]}, {"smiles": "O=c1c(O)c(-c2ccc(O)c(O)c2)oc2cc(O)cc(O)c12", "note": "[Quercetin]", "values": [{"measurement": "Q (charge class)", "setting": "[1]; [15]", "result": 0}, {"measurement": "obs–calc (log Po^in situ)", "setting": "[2]; difference observed minus calculated, external set, no efflux inhibition", "result": "−0.4"}, {"measurement": "obs–calc (log Po^in situ)", "setting": "[2]; efflux inhibition GF120918", "result": 0.7}, {"measurement": "obs–calc (log Po^in situ)", "setting": "[2]; efflux inhibition: PSC833", "result": "−0.3"}, {"measurement": "log PABL", "setting": "[7]", "result": "−4.92"}, {"measurement": "log Po", "setting": "[7]", "result": "−4.40"}, {"measurement": "log Ppara", "setting": "[7]", "result": "−6.87"}, {"measurement": "Pm^7.4", "setting": "[7]", "result": 5}, {"measurement": "pKa", "setting": "physchem [4]", "result": 9.4}, {"measurement": "PS", "setting": "[14]; efflux inhibition: PSC833", "result": "2 10^−4 mLg^−1s^−1"}, {"measurement": "log PS", "setting": "[14]; efflux inhibition: PSC833", "result": "−3.67"}, {"measurement": "PS", "setting": "[10]; efflux inhibition GF120918", "result": "22 10^−4 mLg^−1s^−1"}, {"measurement": "log PS", "setting": "[10]; efflux inhibition GF120918", "result": "−2.65"}, {"measurement": "log Po^in situ (obs)", "setting": "[11]; efflux inhibition GF120918", "result": "−4.03"}]}, {"smiles": "C=C[C@H]1C[N@@]2CC[C@H]1C[C@@H]2[C@@H](O)c1ccnc2ccc(OC)cc12", "note": "[Quinidine]", "values": [{"measurement": "Q (charge class)", "setting": "[1]; [15]", "result": "+"}, {"measurement": "PS", "setting": "[14]; rat, in vivo", "result": "4 10^−4 mLg^−1s^−1"}]}, {"smiles": "O=C(O)c1ccccc1O", "note": "[Salicylic Acid]", "values": [{"measurement": "Q (charge class)", "setting": "[1]; [15]", "result": "−"}, {"measurement": "obs–calc (log Po^in situ)", "setting": "[2]; no efflux inhibition", "result": 0.9}, {"measurement": "log Po", "setting": "Double-Sink PAMPA", "result": "−3.34"}]}, {"smiles": "CCCC(CCC)C(=O)O", "note": "[Valproic Acid]", "values": [{"measurement": "Q (charge class)", "setting": "[1]; [15]", "result": "−"}, {"measurement": "obs–calc (log Po^in situ)", "setting": "[2]; efflux inhibition column: Kd", "result": "−0.2"}, {"measurement": "obs–calc (log Po^in situ)", "setting": "[2]; efflux inhibition mdr1a(−/−)", "result": "−0.2"}, {"measurement": "PS", "setting": "[10]; in vivo", "result": "93 10^−4 mLg^−1s^−1"}, {"measurement": "log PS", "setting": "[10]; in vivo", "result": "−2.03"}, {"measurement": "log Po", "setting": "Double-Sink PAMPA", "result": "−3.77"}, {"measurement": "log Po^in situ (obs)", "setting": "[11]; efflux inhibition column: Kd", "result": "−2.54"}]}, {"smiles": "CC[C@]1(O)C[C@H]2CN(CCc3c([nH]c4ccccc34)[C@@](C(=O)OC)(c3cc4c(cc3OC)N(C=O)[C@H]3[C@@](O)(C(=O)OC)[C@H](OC(C)=O)[C@]5(CC)C=CCN6CC[C@]43[C@@H]65)C2)C1", "note": "[Vincristine]", "values": [{"measurement": "Q (charge class)", "setting": "[1]; [15]", "result": 0}, {"measurement": "obs–calc (log Po^in situ)", "setting": "[2]; efflux inhibition mdr1a(−/−)", "result": "−0.1"}, {"measurement": "obs–calc (log Po^in situ)", "setting": "[2]; efflux inhibition mrp1(−/−)", "result": "−0.5"}, {"measurement": "log PABL", "setting": "[7]", "result": "−4.62"}, {"measurement": "log Po", "setting": "[7]", "result": "−4.54"}, {"measurement": "log Ppara", "setting": "[7]", "result": "−7.67"}, {"measurement": "Pm^7.4", "setting": "[7]", "result": 14}, {"measurement": "PS", "setting": "[5]; efflux inhibition mrp1(−/−)", "result": "1 10^−4 mLg^−1s^−1"}, {"measurement": "log PS", "setting": "[5]; efflux inhibition mrp1(−/−)", "result": "−4.25"}, {"measurement": "log Po^in situ (obs)", "setting": "[6]; efflux inhibition mrp1(−/−)", "result": "−5.95"}]}]}
